What was measured:
Type in all cases: cell-based
[1] = Cell cytotoxicity 50 assay (CC50), HEK cells; details: human
Outline: (§1)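 Starting from a 10 mM drug solution, serial dilutions were made in medium and added onto HEK cells, which were then incubated 72 h at 37 °C. Viability was read as CellTiter-Glo luminescence after 5 min, and CC50 was obtained by curve fitting.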

[2] = Cell cytotoxicity 50 assay (CC50), MB200 cells, cell titer glo; details: human
Outline: (§2)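 MB200 cells were seeded at 10 k/well in F10 medium with bFGF, 15% FBS and dexamethasone. Cells were exposed to serially diluted compound (from 10 mM stock) in triplicate for 72 h at 37 °C. Viability was read by CellTiter-Glo luminescence and CC50 was fitted.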

DUX4 = biological target: T1, DUX4 (Homo sapiens, UniProt Q9UBX2); experiment: DUX4 EC50 luciferase reporter protocol in transfected HEK293 cells; details: 6 hr
T1 construct: expressed in transfected cells; host or cells: HEK293
T1 sequence (Q9UBX2 whole entry): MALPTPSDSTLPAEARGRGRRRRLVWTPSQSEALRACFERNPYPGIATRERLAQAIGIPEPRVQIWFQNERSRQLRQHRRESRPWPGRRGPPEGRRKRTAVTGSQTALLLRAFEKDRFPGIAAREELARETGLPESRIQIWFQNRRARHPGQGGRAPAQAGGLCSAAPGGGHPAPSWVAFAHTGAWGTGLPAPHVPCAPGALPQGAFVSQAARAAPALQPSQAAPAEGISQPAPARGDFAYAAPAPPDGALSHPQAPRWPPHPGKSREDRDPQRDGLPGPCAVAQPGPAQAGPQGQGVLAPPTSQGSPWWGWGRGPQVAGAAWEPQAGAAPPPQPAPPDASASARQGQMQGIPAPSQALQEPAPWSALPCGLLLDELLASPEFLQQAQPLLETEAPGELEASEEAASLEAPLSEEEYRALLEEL
Text: EC50 Protocol This example provides a representative protocol for a single well of a 96-well plate. It can be scaled up as necessary for treatment of multiple wells. For negative controls, a well containing reporter DNA, Renilla DNA, and turbofect (without expression vector) were used. For positive controls, wells containing cells that were not treated with any inhibitor were used. They were transfected with the complete DNA lipid complex as set forth below. The DNA-lipid complex for one well of the 96-well plate is prepared by adding to a tube 100 ng of the transfection factor (TF) expression vector, 100 ng of TF reporter DNA, 10 ng of Renilla reporter DNA, […] Turbofect transfection reagent, and […] of the medium without any serum or penicillin/streptomycin. The combination was mixed by gentle flicking of the tube, and the mixture was pipetted into a well of a 96-well plate. The plate was then gently tapped to spread the combination evenly on the bottom of the well. The well was incubated for 30 min. HEK293 cells were grown until 80% confluent in DMEM supplemented with 10% fetal bovine serum, 1% penicillin streptomycin, and 1% amphotericin B. The adherent cells growing on a 10 cm plate were trypsinized with 1 mL of prewarmed trypsin. Once the cells detached from the plate, 10 mL of medium was added, and the cells were strained through a […] cell strainer. The cells were counted using a mixture of 10 mL cell suspension with 10 mL of trypan blue. Once the total number of cells are counted, a dilution of 150 k/mL was prepared. After incubation of the transfection complex was complete, […] of HEK293s (23.25 k total cells) were gently dispensed on top of the wells containing the 25 mL transfection complex, producing a total volume of about 180 mL. The mixture was then incubated for 24 h. To treat cells with each inhibitor, the inhibitors were prepared in the same growth medium. In a deep well block, the regular medium with serum was added to well 1 (135 mL) and to wells 2 through 10 (100 mL). To the first well was added 15 mL of 10 nM inhibitor. The final concentration of the drug in well 1 was 1 nM. The wells were pipeted up and down, and 50 mL was transferred from well 1 to well 2 (1/3 dilution). The well was mixed, and the seriation dilution was repeated with the remaining wells. Once the serial dilution was complete, using a multichannel pipet, 20 mL of each inhibitor were transferred to designated wells in a 96-well plate. […] Before the assay, a sufficient amount of 1× passive lysis buffer was prepared. The luciferase substrate buffer (Promega) was thawed completely and then mixed with the lyophilized luciferase substrate. The stop buffer (Promega) was also completely thawed. (1) Cell lysis: After treatment of the cells was complete, all the cell media is removed by flipping the 96-well plate over and tapping it dry on a dry paper towel. Immediately afterwards, the 1× passive lysis buffer (25 μL) was added. The plates were then placed on a rocker for 15 minutes at medium speed. (2)Measuring luciferase signal: The luciferase substrate solution for all wells was placed in a solution basin. The luciferase substrate solution was then added to every well (100 μL/well) using a multichannel pipette. The total luminescence was then read immediately using a plate reader. (3)Measuring Renilla signal: The “complete stop solution” was prepared in a solution basin by mixing the buffer with the 50× stop solution substrate (Promega) to make the final 1× solution. The complete stop solution was added to each well (50 μL/well) using a multichannel pipette. The total luminescence was then read immediately using a plate reader. Using a spreadsheet (e.g., Excel), the luciferase signal was divided by the renilla signal to get a relative luciferase unit.

MBD3L2 RNA = experiment: RNA isolation and qPCR to determine MBD3L2 RNA levels in FSHD cells; details: 48 hrs
Outline: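 FSHD cells were treated one day after seeding with a DUX4 inhibitor (11 μM or 3.6 μM) for 48 h. Total RNA was DNase-treated and reverse-transcribed with random hexamers and M-MLV. MBD3L2 was quantified by SYBR Green qPCR in triplicate against EEF1A as the reference gene.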

HEK = experiment: Cell cytotoxicity 50 assay (CC50), HEK cells
Outline: as §1

MB200 cells = experiment: Cell cytotoxicity 50 assay (CC50), MB200 cells, cell titer glo; details: 72 h
Outline: as §2

Row | Structure (SMILES) | CC50 at 72 h [1] [µM] | CC50 at 72 h [2] [µM] | EC50 (DUX4) [µM] | qPCR MBD3L2 Inhib at 11 µM (MBD3L2 RNA) | CC50 (HEK) [µM] | CC50 (MB200 cells) [µM]
1 | CC(=O)NCCCN(C)C(=O)[C@H]1CC[C@H](c2nc3ccccc3s2)C1 [Compound 154] | > 10 | > 10 | > 10 | – | – | –
2 | O=C(CCCN1C(=O)CCC1=O)N[C@@H]1CC[C@H](c2nc3ccccc3s2)C1 [Compound 127] | > 10 | > 10 | > 10 | – | – | –
3 | CC(=O)NCCCN(C)C(=O)[C@@H]1CC[C@H](c2nc3ccccc3s2)C1 [Compound 153] | > 10 | > 10 | > 10 | – | – | –
4 | O=C1CCC(CCC(=O)N[C@H]2CC[C@@H](c3nc4ccccc4s3)CC2)N1 (stereo partly shown) [Compound 186] | > 10 | > 10 | > 10 | – | – | –
5 | CC(=O)NC1CCC(C(=O)N[C@H]2CC[C@@H](c3nc4ccccc4s3)CC2)C1 (stereo partly shown) [Compound 133] | > 10 | > 10 | > 10 | – | – | –
6 | O=C(CCCN1C(=O)CCC1=O)N[C@H]1CC[C@@H](c2nc3ccccc3s2)C1 [Compound 160] | > 10 | > 10 | > 10 | – | – | –
7 | CC(=O)NCCCC(=O)Nc1ccc(Cc2nc3ccccc3s2)cc1 [Compound 80] | > 10 | > 10 | > 10 | – | – | –
8 | CC(=O)NCCCNC(=O)[C@@H]1CC[C@H](c2nc3ccccc3s2)C1 [Compound 165] | > 10 | > 10 | > 10 | – | – | –
9 | O=C(CCN1C(=O)CCC1=O)Nc1ccc(C(=O)c2nc3ccccc3s2)cc1 [Compound 69] | > 10 | 1 to 10 | > 10 | – | – | –
10 | CC(=O)NCCCC(=O)Nc1coc(-c2nccs2)c1 [Compound 79] | > 10 | > 10 | > 10 | – | – | –
11 | O=C(CCCCN1C(=O)CCC1=O)NC1CCC(c2nc3ccccc3s2)CC1 (stereo not shown) [Compound 143] | > 10 | > 10 | > 10 | – | – | –
12 | CC(=O)NCCCNC(=O)c1cc(F)cc(-c2nc3cc(F)ccc3s2)c1 [Compound 180] | > 10 | > 10 | > 10 | – | – | –
13 | O=C(CCCN1CCCC1=O)NC1CCCCC1c1nc2ccccc2s1 (stereo not shown) [Compound 123] | > 10 | > 10 | > 10 | – | – | –
14 | O=C(CCCN1C(=O)CCC1=O)N[C@H]1C[C@H](c2nc3ccccc3s2)C1 [Compound 98] | > 10 | > 10 | > 10 | – | – | –
15 | O=C1CCC(CCC(=O)N[C@H]2CC[C@H](c3nc4ccccc4s3)CC2)N1 (stereo partly shown) [Compound 187] | > 10 | > 10 | > 10 | – | – | –
16 | CC(=O)NCCCC(=O)N[C@H]1CCC[C@H]1c1nc2ccccc2s1 [Compound 136] | > 10 | > 10 | > 10 | – | – | –
17 | CC(=O)NCCCCC(=O)NC1CCC(c2nc3ccccc3s2)CC1 (stereo not shown) [Compound 139] | > 10 | > 10 | > 10 | – | – | –

Row | Structure (SMILES) | CC50 at 72 h [1] [µM] | CC50 at 72 h [2] [µM] | EC50 (DUX4) [µM] | qPCR MBD3L2 Inhib at 11 µM (MBD3L2 RNA) | CC50 (HEK) [µM] | CC50 (MB200 cells) [µM]
18 | O=C(CCCN1C(=O)CCC1=O)N[C@H]1CC[C@H](c2nc3ccccc3s2)C1 [Compound 128] | > 10 | > 10 | > 10 | – | – | –
19 | CC(=O)NCCCC(=O)Nc1ncc(-c2nc3ccccc3s2)o1 [Compound 121] | > 10 | > 10 | > 10 | – | – | –
20 | O=C(CCC(=O)c1cccs1)Nc1ccc(-c2nc3ccccc3s2)cc1 [Compound 25] | > 10 | > 10 | > 10 | – | – | –
21 | CC(=O)NC1CCC(C(=O)NC2CCC(c3nc4ccccc4s3)C2)C1 (stereo not shown) [Compound 135] | > 10 | > 10 | > 10 | – | – | –
22 | O=C(NCCCN1C(=O)CCC1=O)c1ccc(Cc2nc3ccccc3s2)cc1 [Compound 150] | > 10 | > 10 | > 10 | – | – | –
23 | O=C1CCC(=O)N1[C@H]1C[C@@H](C(=O)Nc2ccc(-c3nc4ccccc4s3)cc2)C1 [Compound 95] | > 10 | > 10 | > 10 | – | – | –
24 | O=C(CCC1CCC(=O)N1)Nc1ccc(-c2nc3ccccc3s2)cc1 (stereo not shown) [Compound 26] | – | – | – | YES | > 10 | 1 to 10
25 | O=C(CCCN1C(=O)CCC1=O)Nc1ccc(Cc2nc3ccccc3s2)cc1 [Compound 148] | > 10 | > 10 | > 10 | – | – | –
26 | CN(C(=O)CCCN1C(=O)CCC1=O)C1CCC(c2nc3ccccc3s2)C1 (stereo not shown) [Compound 147] | > 10 | > 10 | > 10 | – | – | –
27 | O=C(CCCCN1C(=O)CCC1=O)N[C@H]1CC[C@H](c2nc3ccccc3s2)CC1 [Compound 152] | > 10 | > 10 | > 10 | – | – | –
28 | O=C(CCCN1C(=O)CCC1=O)N[C@@H]1CC[C@H](c2nc3ccccc3s2)C1 [Compound 159] | – | – | – | – | – | > 10
29 | CC(=O)NCCCNC(=O)[C@H]1CC[C@H](c2nc3ccccc3s2)C1 [Compound 166] | > 10 | > 10 | > 10 | – | – | –
30 | CC(=O)NCCCC(=O)N(C)C1CCC(c2nc3ccccc3s2)C1 (stereo not shown) [Compound 146] | > 10 | > 10 | > 10 | – | – | –
31 | CC(=O)NCCCC(=O)N[C@@H]1CCC[C@H]1c1nc2ccccc2s1 [Compound 137] | > 10 | > 10 | > 10 | – | – | –
32 | O=C(CCCN1CCCC1=O)NC1COCC1c1nc2ccccc2s1 (stereo not shown) [Compound 122] | > 10 | > 10 | > 10 | – | – | –
33 | O=C(CCN1C(=O)CCC1=O)Nc1ccc(-c2ccc3ncsc3c2)cc1 [Compound 43] | > 10 | > 10 | > 10 | – | – | –
34 | CC(=O)NCCCC(=O)Nc1cc(F)cc(-c2nc3cc(F)ccc3s2)c1 [Compound 181] | > 10 | > 10 | > 10 | – | – | –

Reference: patent US20250313555A1, “2-SUBSTITUTED THIAZOLE AND BENZOTHIAZOLE COMPOSITIONS AND METHODS AS DUX4 INHIBITORS” (ALTAY THERAPEUTICS, INC., priority 2022, published 2025)
